Test results taken from US20240101600A1, “FIBROBLAST GROWTH FACTOR RECEPTOR (FGFR)-TARGETING ANTAGONISTIC SHORT PEPTIDE” (WENZHOU MEDICAL UNIVERSITY, priority 2019, published 2024).
Where no end group is shown, it is not given here.

Assays:
FGFR1 [1] = molecular target: FGFR1 (Mus musculus, UniProt P16092); assay: Western blot of bFGF-induced FGFR1 activation in MEF-WT fibroblasts; type: cell-based; design: endogenous in cells; host or cells: MEF-WT; Balb/c 3T3; settings: P48 pretreatment 10 min, bFGF 15 min
Experimental: (§1) Human embryonic kidney cells HEK-293, fibroblasts MEF-WT and Balb/c 3T3 were inoculated into 6-well plates, respectively. After growing adherently overnight, the cells were pretreated with P48 for 10 min or with AZD4547/PD173074/SSR for 2 h, and incubated with bFGF for 15 min. […] The experimental procedure was as follows: MEF-WT and MEFKO (FGFR1-FGFR2-FRS2a) cells (1×10^6 cells/ml) were inoculated in a 35 mm petri dish. After being adhered to the wall of petri dish overnight, the cells were washed with PBS; FITC-conjugated P48 (1, 10, 100 and 1000 nM) was added, and the cells were incubated in an incubator for 30 min. The cells were immobilized with 1% paraformaldehyde in the dark and washed with PBS. An expression level of the FITC was measured at a fluorescence channel 1 (FL-1) (530 nm), with an excitation wavelength of 488 nm. Data analysis was conducted using CellQuest software (Becton Dickinson).

SGC-7901 cells = assay: MTT viability, SGC-7901 cells; type: cell-based; settings: 48 h with bFGF
Experimental: (§2) In vitro anti-tumor activity of a short peptide compound P48 Hela229 (1500 cells/100 μl), B16-F10 (1000 cells/100 μl), NCI-H460 (4000 cells/100 μl) and SGC7901 (4000 cells/100 μl) cells were inoculated in 96-well plates. After incubated overnight adherently, the original medium was replaced with a Dulbecco's modified eagle medium (DMEM) containing 0.1% fetal bovine serum (FBS) or a Roswell Park Memorial Institute 1640 (RPMI-1640) medium containing 0.1% FBS, and culture was continued for 24 h. A mixture of P48 and bFGF, or bFGF alone were added into corresponding wells, and incubated for 48 h; an MTT solution (5 mg/mL) prepared by PBS was added to the cells in each well at 37° C., and treated for 4 h. The MTT was removed by aspiration, 150 μL of DMSO was added to each well, shaking was conducted for 10 min, and an optical density (OD) value was quantified with a microplate reader (SpectraMax M2/M2e, Molecular Devices, Sunnyvale, USA) at a wavelength of 490 nm. The percentage of drug growth inhibition rate was calculated by comparing with the bFGF group. […] The experimental procedure was as follows: 10% FBS-containing medium (500 μl) was added to a lower surface of a transwell insertion chamber, the cells together with the drug were inoculated into an upper chamber, and cultured with a serum-free medium (200 μl). […]

FGFR1 [2] = molecular target: T1, FGFR1 (Homo sapiens, UniProt P11362); assay: Western blot of bFGF-induced FGFR1 activation in HEK-293 cells; type: cell-based; design: endogenous in cells; host or cells: HEK-293; settings: P48 pretreatment 10 min, bFGF 15 min
Experimental: as §1

FGFR1 [3] = molecular target: T1, FGFR1; assay: Western blot of FGFR1 signaling pathway in cervical cancer cells Hela229; type: cell-based; design: endogenous in cells; host or cells: Hela229; NCI-H460; SGC-7901; MGC-803; settings: bFGF stimulation
Experimental: Cervical cancer cells Hela229, melanoma B16-F10, lung cancer cells NCI-H460, gastric cancer cells SGC-7901 and MGC-803 were inoculated into 6-well plates, respectively. After growing adherently overnight, the cells were pretreated with P48 for 10 min or with AZD4547/SSR for 2 h, and incubated with bFGF for 15 min or with KGF for 20 min.

FGFR3B = FGFR3B (Homo sapiens, UniProt P22607); assay: SPR detection of interaction with FGFR3B; type: binding
FGFR1 [4] = assay: Flow cytometry binding of FITC-conjugated P48 to MEF-WT and FGFR1-FGFR2-FRS2a knock-out MEF cells; type: cell-based; settings: FITC-conjugated P48 1, 10, 100, 1000 nM, 30 min
Experimental: as §1

Hela229 cells = assay: MTT viability, Hela229 cells; type: cell-based; settings: 48 h with bFGF
Experimental: as §2

EGFR = molecular target: T2, EGFR (Homo sapiens, UniProt P00533, DEL746-750); assay: Western blot of EGFR and ERK1/2 in PC-9 cells under EGF stimulation; type: cell-based; settings: EGF 10 min
T2 construct: endogenous in cells; host or cells: PC-9

[5] = system: gastric cancer cells SGC-7901; assay: SGC-7901 transplanted tumor model in BALB/c nude mice; type: in vivo; settings: intraperitoneal, 32 and 64 mg/kg·d
Experimental: SGC-7901 cells were injected subcutaneously into the back of BALB/c nude mice. After 10 days, the mice were randomly divided into 4 groups, each with 12 mice, and were administered intraperitoneally. An administration group included a model group (normal saline group), an AZD4547 group (20 mg/kg·d), and a P48 group (32 mg/kg·d, 64 mg/kg·d). The length and width of the tumor were measured using a vernier caliper. The tumor volume was calculated using a formula V=0.52×L×W^2. The weights of the mice were recorded every 3 days, and the tumor size was recorded […]. After 28 days, the nude mice were sacrificed for dissection, and tissue samples were taken out for further study. The results are shown in FIG. 6, wherein A represents the weight change of the mice, B represents the volume and size of the tumor, C represents the expression of phosphorylated FLG, FRS2α and ERK1/2 in vivo after P48 treatment, and D represents the expression of Ki67 in vivo after P48 treatment.

[6] = Half-life of peptides in human plasma (incubation, SPE, liquid chromatography); type: in vitro ADME; settings: compared with precursor peptide P9
PLCy = assay: Western blot of FGFR1 downstream protein PLCy in MEF-WT cells; type: cell-based; settings: bFGF stimulation 15 min
Experimental: as §1

B16-F10 cells = assay: MTT viability, B16-F10 cells; type: cell-based; settings: 48 h with bFGF
Experimental: as §2

T1 sequence (P11362 22-822): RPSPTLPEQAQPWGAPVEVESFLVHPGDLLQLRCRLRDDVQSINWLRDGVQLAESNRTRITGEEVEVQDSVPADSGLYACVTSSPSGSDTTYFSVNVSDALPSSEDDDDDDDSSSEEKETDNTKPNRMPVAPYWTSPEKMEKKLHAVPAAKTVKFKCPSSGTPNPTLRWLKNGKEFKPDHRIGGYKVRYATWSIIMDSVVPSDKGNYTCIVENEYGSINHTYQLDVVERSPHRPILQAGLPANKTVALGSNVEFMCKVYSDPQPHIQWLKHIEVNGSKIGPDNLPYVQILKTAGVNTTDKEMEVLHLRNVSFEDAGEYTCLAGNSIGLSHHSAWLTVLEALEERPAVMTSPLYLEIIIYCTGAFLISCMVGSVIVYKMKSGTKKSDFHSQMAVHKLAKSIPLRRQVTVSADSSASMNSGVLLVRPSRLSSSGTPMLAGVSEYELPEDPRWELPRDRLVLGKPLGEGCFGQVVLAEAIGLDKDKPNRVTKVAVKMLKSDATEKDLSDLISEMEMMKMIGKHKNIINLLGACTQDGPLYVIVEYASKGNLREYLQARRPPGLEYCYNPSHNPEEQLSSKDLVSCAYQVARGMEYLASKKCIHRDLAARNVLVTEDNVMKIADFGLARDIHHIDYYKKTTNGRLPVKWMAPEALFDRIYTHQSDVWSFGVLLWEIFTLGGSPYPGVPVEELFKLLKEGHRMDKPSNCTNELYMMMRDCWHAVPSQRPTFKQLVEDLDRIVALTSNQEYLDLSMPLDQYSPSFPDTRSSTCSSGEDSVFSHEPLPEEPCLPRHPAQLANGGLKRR
Sequence of FGFR3B (P22607 23-808 isoform P22607-2 limits assumed): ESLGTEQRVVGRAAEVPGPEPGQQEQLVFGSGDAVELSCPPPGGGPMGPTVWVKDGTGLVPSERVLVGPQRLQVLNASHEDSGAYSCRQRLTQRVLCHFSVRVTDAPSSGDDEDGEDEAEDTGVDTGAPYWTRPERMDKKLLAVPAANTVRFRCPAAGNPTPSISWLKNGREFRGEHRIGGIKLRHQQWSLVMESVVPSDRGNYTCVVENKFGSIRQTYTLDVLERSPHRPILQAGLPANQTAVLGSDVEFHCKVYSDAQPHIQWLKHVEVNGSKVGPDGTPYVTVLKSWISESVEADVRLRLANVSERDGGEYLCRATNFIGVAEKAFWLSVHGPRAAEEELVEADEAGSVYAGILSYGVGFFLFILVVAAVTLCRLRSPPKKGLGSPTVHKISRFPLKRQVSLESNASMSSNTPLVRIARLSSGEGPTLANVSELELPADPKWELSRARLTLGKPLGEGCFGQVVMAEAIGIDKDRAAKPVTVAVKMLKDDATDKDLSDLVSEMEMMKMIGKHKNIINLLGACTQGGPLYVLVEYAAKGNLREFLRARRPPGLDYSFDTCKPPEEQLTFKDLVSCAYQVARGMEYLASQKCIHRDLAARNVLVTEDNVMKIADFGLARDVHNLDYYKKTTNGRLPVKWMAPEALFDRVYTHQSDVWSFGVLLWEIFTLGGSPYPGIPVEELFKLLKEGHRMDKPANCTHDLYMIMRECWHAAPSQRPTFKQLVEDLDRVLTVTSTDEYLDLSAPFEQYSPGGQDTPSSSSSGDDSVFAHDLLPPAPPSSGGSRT
Sequence of FGFR1 (Mus musculus, UniProt P16092) (P16092 22-822): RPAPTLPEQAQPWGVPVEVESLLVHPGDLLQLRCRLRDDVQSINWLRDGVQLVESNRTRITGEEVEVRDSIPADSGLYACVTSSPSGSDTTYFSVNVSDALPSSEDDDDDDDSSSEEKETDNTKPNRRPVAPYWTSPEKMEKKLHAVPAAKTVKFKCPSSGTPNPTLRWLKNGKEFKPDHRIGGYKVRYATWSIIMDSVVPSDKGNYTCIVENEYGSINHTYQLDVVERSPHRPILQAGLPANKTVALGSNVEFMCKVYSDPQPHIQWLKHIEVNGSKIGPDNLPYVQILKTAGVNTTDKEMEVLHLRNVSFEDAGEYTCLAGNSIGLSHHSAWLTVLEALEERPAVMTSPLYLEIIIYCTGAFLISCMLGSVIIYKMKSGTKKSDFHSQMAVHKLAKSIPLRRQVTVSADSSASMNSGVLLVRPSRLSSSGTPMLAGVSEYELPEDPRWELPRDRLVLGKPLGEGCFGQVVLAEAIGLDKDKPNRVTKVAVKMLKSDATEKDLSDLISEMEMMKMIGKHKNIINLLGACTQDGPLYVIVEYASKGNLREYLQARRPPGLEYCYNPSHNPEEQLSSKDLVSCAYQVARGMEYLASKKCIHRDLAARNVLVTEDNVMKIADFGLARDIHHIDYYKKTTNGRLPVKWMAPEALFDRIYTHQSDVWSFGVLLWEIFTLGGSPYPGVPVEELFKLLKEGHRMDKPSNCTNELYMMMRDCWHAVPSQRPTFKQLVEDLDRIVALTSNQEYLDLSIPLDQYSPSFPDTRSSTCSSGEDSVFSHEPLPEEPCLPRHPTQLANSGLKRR

For “SPPRYPGGGS-NH2 [P48, Ser-Pro-Pro-Arg-Tyr-Pro-Gly-Gly-Gly-Ser-NH2]”, the “inhibition of FGFR1 activation induced by bFGF” value (FGFR1 [1]) was “can inhibit activation of FGFR1 induced by bFGF in a concentration-dependent manner”, the “inhibition of cancer cell viability” value (SGC-7901 cells) was “can significantly inhibit the viability of cancer cells” and the “inhibition of FGFR1 activation induced by bFGF” value (FGFR1 [2]) was “can inhibit activation of FGFR1 induced by bFGF in a concentration-dependent manner”. The “inhibition of FGFR1 signaling pathway” value (FGFR1 [3]) was “can inhibit the FGFR1 signaling pathway of cervical cancer, melanoma, lung cancer and gastric cancer in a concentration-dependent manner”, the “binding to FGFR3B” value (FGFR3B) was “can be bound” and the “binding to wild-type versus FGFR1-FGFR2-FRS2a knock-out MEF cells” value (FGFR1 [4]) was “only has a binding effect on the wild-type MEF cells”. The “inhibition of cancer cell viability” value (Hela229 cells) was “can significantly inhibit the viability of cancer cells”, the “effect on EGF stimulation (phosphorylated EGFR and ERK1/2)” value (EGFR) was “has no effect” and the “inhibition of FGFR1 signaling pathways in tumors (phosphorylated FLG, FRS2a, ERK1/2)” value ([5]; 28 days) was “desirable inhibitory effect”. The “inhibition of tumor growth” value ([5]; 28 days) was “can significantly inhibit the growth of gastric cancer cells SGC-7901”, the “inhibition of Ki67 expression (immunohistochemistry)” value ([5]; compared with control group) was “can inhibit the expression of Ki67 in a concentration-dependent manner” and the half-life in plasma [6] was “relatively prolonged half-life”. For the same substance, the “inhibitory effect on downstream PLCy” value (PLCy) was “no significant inhibitory effect” and the “inhibition of cancer cell viability” value (B16-F10 cells) was “can significantly inhibit the viability of cancer cells”.
